Source: PubChem BioAssay (NCI)
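Values below derive from 48-hour exposures of cells grown in 96-well plates, with endpoints linearly interpolated between the two concentrations bracketing the appropriate inhibition level. TGI is the concentration that stops growth completely.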

How the values were obtained:
Assay in all cases: growth of human tumour cells (NCI), 48 h
[1] = tested on: MALME-3M melanoma
[2] = tested on: UO-31 renal
[3] = tested on: SN12C renal
[4] = tested on: SF-268 CNS
[5] = tested on: OVCAR-8 ovarian
[6] = tested on: U251 CNS
[7] = tested on: HS 578T breast
[8] = tested on: RXF 393 renal
[9] = tested on: OVCAR-3 ovarian
[10] = tested on: CAKI-1 renal
[11] = tested on: A549 NSCLC
[12] = tested on: COLO 205 colon
[13] = tested on: PC-3 prostate
[14] = tested on: SK-MEL-28 melanoma
[15] = tested on: NCI-H226 lung
[16] = tested on: NCI-H460 lung
[17] = tested on: K-562 leukemia
[18] = tested on: 786-0 renal
[19] = tested on: MDA-N
[20] = tested on: SNB-19 CNS
[21] = tested on: HOP-62 NSCLC
[22] = tested on: T-47D breast
[23] = tested on: M14 melanoma
[24] = tested on: TK-10 renal
[25] = tested on: SK-OV-3 ovarian
[26] = tested on: EKVX NSCLC
[27] = tested on: DU-145 prostate
[28] = tested on: SK-MEL-5 melanoma
[29] = tested on: HCT-116 colon
[30] = tested on: SF-295 CNS
[31] = tested on: UACC-257 melanoma
[32] = tested on: UACC-62 melanoma
[33] = tested on: MCF7 breast
[34] = tested on: ACHN renal
[35] = tested on: HOP-92 NSCLC
[36] = tested on: BT-549 breast
[37] = tested on: MDA-MB-231 breast
[38] = tested on: OVCAR-4 ovarian
[39] = tested on: SK-MEL-2 melanoma
[40] = tested on: KM12 colon
[41] = tested on: RPMI-8226 leukemia
[42] = tested on: HT29 colon
[43] = tested on: MDA-MB-435
[44] = tested on: OVCAR-5 ovarian
[45] = tested on: NCI-H522 lung
[46] = tested on: NCI-H23 lung
[47] = tested on: SF-539 CNS
[48] = tested on: NCI/ADR-RES ovarian
[49] = tested on: IGROV1 ovarian
[50] = tested on: SW-620 colon
[51] = tested on: A498 renal
[52] = tested on: HCT-15 colon
[53] = tested on: MOLT-4 leukemia
[54] = tested on: LOX IMVI melanoma
[55] = tested on: SR leukemia
[56] = tested on: CCRF-CEM leukemia
[57] = tested on: SNB-75 CNS
[58] = tested on: HCC-2998 colon
[59] = tested on: HL-60(TB) leukemia

Cc1ncc(CSC(=N)N)n1Cc1ccccc1
TGI [1]: > 100 µM | TGI [2]: > 100 µM | TGI [3]: > 100 µM | TGI [4]: > 100 µM | TGI [5]: > 100 µM | TGI [6]: > 100 µM | TGI [7]: > 100 µM | TGI [8]: > 100 µM | TGI [9]: > 100 µM | TGI [10]: > 100 µM | TGI [11]: > 100 µM | TGI [12]: > 100 µM | TGI [13]: > 100 µM | TGI [14]: > 100 µM | TGI [15]: > 100 µM | TGI [16]: > 100 µM | TGI [17]: > 100 µM | TGI [18]: > 100 µM | TGI [19]: > 100 µM | TGI [20]: > 100 µM | TGI [21]: > 100 µM | TGI [22]: > 100 µM | TGI [23]: > 100 µM | TGI [24]: > 100 µM | TGI [25]: > 100 µM | TGI [26]: > 100 µM | TGI [27]: > 100 µM | TGI [28]: > 100 µM | TGI [29]: > 100 µM | TGI [30]: > 100 µM | TGI [31]: > 100 µM | TGI [32]: > 100 µM | TGI [33]: > 100 µM | TGI [34]: > 100 µM | TGI [35]: > 100 µM | TGI [36]: > 100 µM | TGI [37]: > 100 µM | TGI [38]: > 100 µM | TGI [39]: > 100 µM | TGI [40]: > 100 µM | TGI [41]: 83.2 µM | TGI [42]: > 100 µM | TGI [43]: > 100 µM | TGI [44]: > 100 µM | TGI [45]: 64.4 µM | TGI [46]: > 100 µM | TGI [47]: > 100 µM | TGI [48]: > 100 µM | TGI [49]: > 100 µM | TGI [50]: > 100 µM | TGI [51]: > 100 µM | TGI [52]: > 100 µM

Clc1cc2ncn(C3CCCCO3)c2cc1Cl (stereo not given)
TGI [1]: > 100 µM | TGI [2]: 49.8 µM | TGI [3]: > 100 µM | TGI [4]: > 100 µM | TGI [5]: > 100 µM | TGI [6]: > 100 µM | TGI [7]: 85.4 µM | TGI [8]: > 100 µM | TGI [9]: > 100 µM | TGI [10]: > 100 µM | TGI [11]: > 100 µM | TGI [12]: > 100 µM | TGI [13]: > 100 µM | TGI [14]: > 100 µM | TGI [15]: 80.9 µM | TGI [53]: > 100 µM | TGI [17]: > 100 µM | TGI [18]: > 100 µM | TGI [19]: > 100 µM | TGI [20]: > 100 µM | TGI [21]: > 100 µM | TGI [22]: > 100 µM | TGI [23]: > 100 µM | TGI [25]: > 100 µM | TGI [26]: 92.4 µM | TGI [54]: > 100 µM | TGI [27]: > 100 µM | TGI [28]: > 100 µM | TGI [55]: > 100 µM | TGI [56]: > 100 µM | TGI [29]: > 100 µM | TGI [57]: 53.9 µM | TGI [30]: > 100 µM | TGI [32]: > 100 µM | TGI [33]: > 100 µM | TGI [36]: 84.5 µM | TGI [37]: > 100 µM | TGI [58]: > 100 µM | TGI [38]: > 100 µM | TGI [39]: > 100 µM | TGI [40]: > 100 µM | TGI [41]: > 100 µM | TGI [42]: > 100 µM | TGI [43]: > 100 µM | TGI [59]: > 100 µM | TGI [44]: > 100 µM | TGI [45]: 59.2 µM | TGI [46]: > 100 µM | TGI [47]: > 100 µM | TGI [48]: > 100 µM | TGI [49]: > 100 µM | TGI [50]: > 100 µM | TGI [52]: > 100 µM
